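Briefly, cells in 96-well plates were exposed to five compound concentrations for 48 h, and endpoints were estimated by linear interpolation. GI50 = concentration required for 50% inhibition of growth.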 Activity calls are given as the source filed them. Cut-off read from the data, not from the text of the source: active = GI50 up to about 1.1 µM and inactive = higher.
Experiments:
Test in all cases: NCI-60 cell line screen, 48 h
A498 = system: A498
CCRF-CEM = system: CCRF-CEM
A549 = system: A549
SK-MEL-5 = system: SK-MEL-5
K562 = system: K562
CAKI-1 = system: CAKI-1
HCC 2998 = system: HCC 2998
U-251 = system: U-251
IGROV-1 = system: IGROV-1
SW-620 = system: SW-620
SNB-19 = system: SNB-19
SR = system: SR
KM12 = system: KM12
UACC-62 = system: UACC-62
HCT-15 = system: HCT-15
BT-549 = system: BT-549
RPMI-8226 = system: RPMI-8226
NCI-H23 = system: NCI-H23
SF-268 = system: SF-268
M14 = system: M14
EKVX = system: EKVX
ACHN = system: ACHN
HT-29 = system: HT-29
Hs-578T = system: Hs-578T
NCI-H460 = system: NCI-H460
NCI-H226 = system: NCI-H226
MOLT-4 = system: MOLT-4
HOP-92 = system: HOP-92
LOX IMVI = system: LOX IMVI
RXF 393 = system: RXF 393
SN12C = system: SN12C
TK-10 = system: TK-10
SK-MEL-28 = system: SK-MEL-28
SNB-75 = system: SNB-75
HL-60 = system: HL-60
786-0 = system: 786-0
OVCAR-4 = system: OVCAR-4
SF-539 = system: SF-539
OVCAR-5 = system: OVCAR-5
OVCAR-3 = system: OVCAR-3
NCI/ADR-RES = system: NCI/ADR-RES
MCF7 = system: MCF7
PC-3 = system: PC-3
SK-OV-3 = system: SK-OV-3
UO-31 = system: UO-31
OVCAR-8 = system: OVCAR-8
NCI-H522 = system: NCI-H522
DU-145 = system: DU-145
UACC-257 = system: UACC-257
HCT-116 = system: HCT-116
Malme-3M = system: Malme-3M
MDA-MB-435 = system: MDA-MB-435
HOP-62 = system: HOP-62
SK-MEL-2 = system: SK-MEL-2
MDA-N = system: MDA-N
COLO 205 = system: COLO 205
MDA-MB-231 = system: MDA-MB-231
SF-295 = system: SF-295

Measured: GI50

O=C1CCCC2=C1CC1=C(CCCC1=O)N2c1cccc2ccccc12
66.7 µM: HCT-15
inactive: A498 > 100 µM | CCRF-CEM 47.3 µM | A549 > 100 µM | SK-MEL-5 85.3 µM | K562 44 µM | CAKI-1 > 100 µM | HCC 2998 > 100 µM | U-251 61 µM | IGROV-1 > 100 µM | SW-620 > 100 µM | SNB-19 75 µM | SR > 100 µM | KM12 > 100 µM | UACC-62 64.1 µM | BT-549 26.8 µM | RPMI-8226 > 100 µM | NCI-H23 52.5 µM | SF-268 45.1 µM | M14 > 100 µM | EKVX > 100 µM | ACHN > 100 µM | HT-29 > 100 µM | Hs-578T 33.8 µM | NCI-H460 > 100 µM | NCI-H226 > 100 µM | MOLT-4 78 µM | HOP-92 33 µM | LOX IMVI > 100 µM | RXF 393 10.9 µM | SN12C > 100 µM | TK-10 > 100 µM | SK-MEL-28 > 100 µM | SNB-75 29.1 µM | HL-60 17 µM | 786-0 57.1 µM | OVCAR-4 > 100 µM | SF-539 > 100 µM | OVCAR-5 > 100 µM | OVCAR-3 > 100 µM | NCI/ADR-RES > 100 µM | MCF7 41.1 µM | PC-3 > 100 µM | SK-OV-3 > 100 µM | UO-31 > 100 µM | OVCAR-8 69.2 µM

CCOc1ccc(N2C(=O)NC3(c4ccccc4)N(C)C(=O)N(C)C23c2ccccc2)cc1 (stereo unspecified)
inactive: NCI-H522 33.9 µM | DU-145 > 100 µM | UACC-257 > 100 µM | A498 > 100 µM | CCRF-CEM > 100 µM | HCT-116 78 µM | A549 56.8 µM | SK-MEL-5 68.9 µM | Malme-3M > 100 µM | K562 74 µM | MDA-MB-435 > 100 µM | HOP-62 > 100 µM | CAKI-1 > 100 µM | U-251 > 100 µM | IGROV-1 > 100 µM | SW-620 > 100 µM | SNB-19 > 100 µM | SR > 100 µM | KM12 55.3 µM | UACC-62 86.3 µM | SK-MEL-2 > 100 µM | BT-549 83.9 µM | RPMI-8226 57.1 µM | NCI-H23 > 100 µM | M14 > 100 µM | MDA-N 62.4 µM | EKVX > 100 µM | ACHN > 100 µM | COLO 205 > 100 µM | HT-29 94.2 µM | NCI-H226 61 µM | MOLT-4 30.4 µM | HOP-92 > 100 µM | LOX IMVI > 100 µM | RXF 393 66.4 µM | SN12C > 100 µM | SK-MEL-28 > 100 µM | SNB-75 12.4 µM | HL-60 75.2 µM | 786-0 > 100 µM | MDA-MB-231 83.6 µM | SF-539 > 100 µM | OVCAR-5 > 100 µM | OVCAR-3 > 100 µM | NCI/ADR-RES 63.1 µM | MCF7 46.2 µM | PC-3 41 µM | SF-295 97.3 µM | SK-OV-3 > 100 µM | UO-31 92.9 µM | OVCAR-8 61.1 µM

OC1(c2cc3ccccc3s2)CCCCC1
inactive: NCI-H522 28.1 µM | DU-145 63.2 µM | UACC-257 32.6 µM | A498 43.2 µM | CCRF-CEM 21.4 µM | HCT-116 33.3 µM | A549 40.8 µM | SK-MEL-5 34.7 µM | K562 34.4 µM | MDA-MB-435 46.8 µM | HOP-62 > 100 µM | CAKI-1 > 100 µM | HCC 2998 76 µM | U-251 49.5 µM | IGROV-1 87.5 µM | SW-620 50.1 µM | SNB-19 82.4 µM | SR 38.4 µM | KM12 41.3 µM | UACC-62 69.7 µM | BT-549 55.7 µM | NCI-H23 46.6 µM | SF-268 29.2 µM | M14 66.8 µM | MDA-N 38.4 µM | EKVX 33.6 µM | ACHN 69 µM | COLO 205 19.9 µM | HT-29 23.7 µM | Hs-578T 28.5 µM | NCI-H460 44.2 µM | NCI-H226 80.9 µM | MOLT-4 25.8 µM | HOP-92 18 µM | LOX IMVI 45.8 µM | RXF 393 39.4 µM | SN12C 30.9 µM | TK-10 64.4 µM | SK-MEL-28 81.3 µM | SNB-75 35.1 µM | HL-60 37.7 µM | 786-0 34 µM | MDA-MB-231 30.8 µM | OVCAR-4 39.2 µM | SF-539 > 100 µM | OVCAR-5 40.8 µM | OVCAR-3 30.1 µM | NCI/ADR-RES 47.2 µM | MCF7 36.6 µM | SF-295 37.9 µM | SK-OV-3 66.4 µM | UO-31 51.1 µM | OVCAR-8 42.6 µM
39.1 µM: HCT-15
